Where “and” joins values, the source holds several entries; their conditions need not be identical. Equal entries are not always repeated.
Assay: xn = mol fraction of the nth substance listed

CCNc1ccccc1 + CCCCCCCCO
viscosity [mPa·s], 101 kPa
Settings | 303.15 K | 308.15 K | 313.15 K
x1 = 0.0802 | 5.589 | 4.869 | 3.822
x1 = 0.1625 | 5.024 | 4.381 | 3.478
x1 = 0.2541 | 4.463 | 3.898 | 3.134
x1 = 0.3514 | 3.937 | 3.445 | 2.808
x1 = 0.4421 | 3.504 | 3.071 | 2.537
x1 = 0.5012 | 3.248 | 2.851 | 2.375
x1 = 0.5741 | 2.96 | 2.601 | 2.19
x1 = 0.6214 | 2.787 | 2.451 | 2.078
x1 = 0.6952 | 2.538 | 2.235 | 1.915
x1 = 0.7412 | 2.395 | 2.112 | 1.822
x1 = 0.7954 | 2.238 | 1.975 | 1.717
x1 = 0.8412 | 2.114 | 1.867 | 1.635
x1 = 0.8921 | 1.984 | 1.756 | 1.549

CCNc1ccccc1 + CC(C)CO
viscosity [mPa·s], 101 kPa
Settings | 303.15 K | 308.15 K
x1 = 0.0756 | 2.789 | 2.414
x1 = 0.1356 | 2.742 | 2.38
x1 = 0.1958 | 2.695 | 2.348
x1 = 0.2654 | 2.637 | 2.307
x1 = 0.3214 | 2.588 | 2.27
x1 = 0.3956 | 2.517 | 2.215
x1 = 0.4565 | 2.454 | 2.16
x1 = 0.5202 | 2.384 | 2.106
x1 = 0.6021 | 2.284 | 2.029
x1 = 0.6745 | 2.194 | 1.956
x1 = 0.7325 | 2.116 | 1.889
x1 = 0.8025 | 2.019 | 1.811
x1 = 0.8869 | 1.903 | 1.714

ClCCCl + C1COCCO1
303.15 K, 101.33 kPa
Settings | viscosity [mPa·s]
x2 = 0.0462 | 0.7468
x2 = 0.1984 | 0.7909
x2 = 0.2786 | 0.8101
x2 = 0.3663 | 0.8307
x2 = 0.4515 | 0.8512
x2 = 0.567 | 0.8832
x2 = 0.6362 | 0.9068
x2 = 0.7673 | 0.9595
x2 = 0.8428 | 0.996
x2 = 0.9185 | 1.037

ClCCCl + c1ccccc1
101 kPa
Settings | viscosity [mPa·s]
293.15 K, x2 = 0.09 | 0.7903
293.15 K, x2 = 0.2 | 0.7512
293.15 K, x2 = 0.3 | 0.7172
293.15 K, x2 = 0.392 | 0.6824
293.15 K, x2 = 0.525 | 0.6583
293.15 K, x2 = 0.577 | 0.6545
293.15 K, x2 = 0.683 | 0.634
293.15 K, x2 = 0.81 | 0.636
293.15 K, x2 = 0.9 | 0.6404
298.15 K, x2 = 0.2 | 0.686
298.15 K, x2 = 0.4 | 0.634
298.15 K, x2 = 0.6 | 0.601
298.15 K, x2 = 0.8 | 0.59
313.15 K, x2 = 0.09 | 0.6098
313.15 K, x2 = 0.2 | 0.5936
313.15 K, x2 = 0.525 | 0.5387
313.15 K, x2 = 0.81 | 0.508

CCC(=O)N(CC)CC + O
298.16 K, 101 kPa
Settings | viscosity [mPa·s]
x2 = 0.0649 | 1.31
x2 = 0.1684 | 1.49
x2 = 0.2965 | 1.79
x2 = 0.4448 | 2.27
x2 = 0.5923 | 2.93
x2 = 0.7652 | 3.86
x2 = 0.8001 | 3.91
x2 = 0.8352 | 3.83
x2 = 0.8933 | 3.34
x2 = 0.9093 | 3.03

CCNc1ccccc1 + CCCCO
303.15 K, 101 kPa
Settings | viscosity [mPa·s]
x1 = 0.0702 | 2.203
x1 = 0.1296 | 2.187
x1 = 0.1901 | 2.173
x1 = 0.2568 | 2.154
x1 = 0.3204 | 2.132
x1 = 0.3725 | 2.114
x1 = 0.4414 | 2.085
x1 = 0.5136 | 2.047
x1 = 0.5841 | 2.007
x1 = 0.6525 | 1.97
x1 = 0.7225 | 1.926
x1 = 0.7954 | 1.873
x1 = 0.8741 | 1.819

CC(=O)O + C1CCCCC1
303.15 K, 101 kPa
Settings | viscosity [mPa·s]
x2 = 0.09517 | 0.8375
x2 = 0.1912 | 0.747
x2 = 0.2978 | 0.6933
x2 = 0.5005 | 0.6661
x2 = 0.5952 | 0.6798
x2 = 0.6982 | 0.6567
x2 = 0.8007 | 0.6847
x2 = 0.9035 | 0.7306

CC1CCCC(C)C1=O (stereo unspecified) + COc1ccccc1N
viscosity [mPa·s], 100 kPa
Settings | x2 = 0.0997 | x2 = 0.1852 | x2 = 0.2554 | x2 = 0.3527 | x2 = 0.4551 | x2 = 0.5424 | x2 = 0.6519 | x2 = 0.7414 | x2 = 0.8479
303.15 K | 3.865 | 3.998 | 4.106 | 4.247 | 4.383 | 4.491 | 4.612 | 4.701 | 4.797
308.15 K | 3.412 | 3.557 | 3.673 | 3.825 | 3.972 | 4.09 | 4.227 | 4.325 | 4.435
313.15 K | 2.958 | 3.116 | 3.239 | 3.401 | 3.56 | 3.687 | 3.84 | 3.948 | 4.071

C1CCC2=[NH+]CCCN2CC1.c1c[n-]cn1 + CN(C)C=O
298.15 K, 100 kPa
Settings | viscosity [mPa·s]
x1 = 0.0998 | 1.496
x1 = 0.1996 | 2.353
x1 = 0.2995 | 3.64
x1 = 0.3994 | 5.34
x1 = 0.4994 | 7.345
x1 = 0.5994 | 10.26
x1 = 0.6995 | 14.27
x1 = 0.7996 | 19.37
x1 = 0.8998 | 25.32

CCOC(N)=O + O
viscosity [mPa·s], 101.33 kPa
Settings | x1 = 0.01112 | x1 = 0.02393 | x1 = 0.03411 | x1 = 0.0497 | x1 = 0.06189 | x1 = 0.07566 | x1 = 0.1253
293.15 K | 1.122 | 1.253 | 1.356 | 1.505 | 1.618 | 1.743 | 2.156
298.15 K | 0.9919 | 1.102 | 1.191 | 1.314 | 1.409 | 1.513 | 1.86

NC(=O)CC[C@H](N)C(=O)O + O
viscosity, 101 kPa
Settings | x1 = 0.00045 | x1 = 0.0009 | x1 = 0.001 | x1 = 0.00135 | x1 = 0.001798 | x1 = 0.002247 | x1 = 0.002695 | x1 = 0.003
298.15 K | 0.897 mPa·s | – | – | 0.909 mPa·s | 0.915 mPa·s | – | 0.9269 mPa·s | 0.9238 mPa·s and 0.9238 mPa·s
303.15 K | 0.8032 mPa·s | – | 0.812 mPa·s | 0.8135 mPa·s | 0.8186 mPa·s | 0.8237 mPa·s | 0.8288 mPa·s | 0.8262 mPa·s and 0.8262 mPa·s
308.15 K | – | 0.7288 mPa·s | 0.7318 mPa·s and 0.7318 mPa·s | – | – | – | 0.7464 mPa·s | 0.7442 mPa·s
313.15 K | – | 0.6613 mPa·s | – | 0.6651 mPa·s | 0.6689 mPa·s | 0.6727 mPa·s | 0.6765 mPa·s | 0.6746 mPa·s
318.15 K | 0.6013 mPa·s | 0.6048 mPa·s | 0.6071 mPa·s | 0.6082 mPa·s | 0.6115 mPa·s | 0.6148 mPa·s | 0.6181 mPa·s | 0.6166 mPa·s

CCCCCCCCCCCCCCCC(=O)O + CC(C)[C@@H]1CC[C@@H](C)C[C@H]1O
100 kPa, x1 = 0.15
Settings | viscosity [mPa·s]
313.15 K | 15.25
318.15 K | 11.78
323.15 K | 9.29

CCOC=O + CCCC(C)O
viscosity [mPa·s], 100 kPa
Settings | x1 = 0.0826 | x1 = 0.1603 | x1 = 0.2396 | x1 = 0.3504 | x1 = 0.4402 | x1 = 0.5595 | x1 = 0.6497 | x1 = 0.74 | x1 = 0.8501 | x1 = 0.9381
293.15 K | 2.84 | 2.16 | 1.73 | 1.34 | 1.12 | 0.91 | 0.78 | 0.65 | 0.52 | 0.45
298.15 K | 2.5 | 1.96 | 1.57 | 1.23 | 1.02 | 0.85 | 0.73 | 0.6 | 0.49 | 0.43
303.15 K | 2.2 | 1.74 | 1.4 | 1.11 | 0.93 | 0.77 | 0.67 | 0.57 | 0.46 | 0.41
308.15 K | 1.9 | 1.53 | 1.23 | 0.98 | 0.84 | 0.7 | 0.6 | 0.52 | 0.43 | 0.39
313.15 K | 1.6 | 1.3 | 1.05 | 0.86 | 0.75 | 0.63 | 0.54 | 0.46 | 0.4 | 0.36
318.15 K | 1.32 | 1.06 | 0.89 | 0.73 | 0.64 | 0.54 | 0.47 | 0.41 | 0.36 | 0.33
323.15 K | 1.06 | 0.84 | 0.7 | 0.59 | 0.53 | 0.45 | 0.4 | 0.36 | 0.33 | 0.31

CCOC=O + CCC(C)O
viscosity [mPa·s], 100 kPa
Settings | x1 = 0.0818 | x1 = 0.1617 | x1 = 0.2415 | x1 = 0.3497 | x1 = 0.4398 | x1 = 0.5611 | x1 = 0.65 | x1 = 0.7399 | x1 = 0.85 | x1 = 0.9396
293.15 K | 2.41 | 1.74 | 1.35 | 1.04 | 0.86 | 0.69 | 0.59 | 0.53 | 0.48 | 0.44
298.15 K | 2.03 | 1.51 | 1.2 | 0.94 | 0.78 | 0.62 | 0.55 | 0.5 | 0.45 | 0.42
303.15 K | 1.74 | 1.32 | 1.07 | 0.84 | 0.71 | 0.58 | 0.51 | 0.47 | 0.43 | 0.4
308.15 K | 1.5 | 1.17 | 0.96 | 0.77 | 0.66 | 0.55 | 0.49 | 0.45 | 0.41 | 0.38
313.15 K | 1.3 | 1.02 | 0.85 | 0.71 | 0.61 | 0.51 | 0.46 | 0.42 | 0.39 | 0.36
318.15 K | 1.13 | 0.9 | 0.77 | 0.65 | 0.57 | 0.48 | 0.43 | 0.39 | 0.36 | 0.34
323.15 K | 1 | 0.82 | 0.72 | 0.61 | 0.55 | 0.47 | 0.42 | 0.38 | 0.35 | 0.32

Reference: the CheMixHub viscosity set
